Laboratory results: US20060069132A1, “Azolecarboxamide herbicides” (priority 2004, published 2006)

Experiments:
morningglory [1] = experiment: Test B pre-/postemergence herbicide test; format: in vivo, Ipomoea coccinea
How it was run: (§1)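 Flooded paddy rice and barnyardgrass were treated at the 2-leaf stage; upland plantings received compound either on sown seed or on 1- to 4-leaf seedlings. All were kept 13–15 days in a greenhouse and scored visually, 0–100, relative to untreated plants.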

morningglory [2] = experiment: Test A pre-/postemergence herbicide test; format: in vivo, Ipomoea spp.
How it was run: (§2)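 Plants are held in greenhouse about ten days after treatment, then compared with untreated controls and scored 0 (no effect) to 100 (complete control). Preemergence dosing is a directed soil spray on sown sandy loam; postemergence dosing is spray to runoff at 2–10 cm height.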

blackgrass = experiment: Test B postemergence herbicide test; format: in vivo, Alopecurus myosuroides; conditions: scale 0 (no effect) to 100 (complete control)
How it was run: (§3)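 After treating 2-leaf paddy plants or 2–18 cm postemergence plants (1 to 4 leaves) with formulated chemical, researchers kept them in a greenhouse for 13–15 days. Effects were judged visually versus controls: 0 indicates none, 100 total control.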

giant foxtail [3] = experiment: Test A pre-/postemergence herbicide test; format: in vivo, Setaria faberi
How it was run: as §2

wild oat = experiment: Test B postemergence herbicide test; format: in vivo, Avena fatua; conditions: scale 0 (no effect) to 100 (complete control)
How it was run: (§4)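 Plants grow to 1- to 4-leaf stage (2–18 cm) for postemergence spraying, or to 2-leaf stage for the paddy test. Formulated compound is applied. Greenhouse holding lasts 13–15 days. Response is scored visually relative to controls, 0 no effect to 100 complete control; a dash means no result.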

large crabgrass [4] = experiment: Test A pre-/postemergence herbicide test; format: in vivo, Digitaria sanguinalis
How it was run: as §2

giant foxtail [5] = experiment: Test B pre-/postemergence herbicide test; format: in vivo, Setaria faberi
How it was run: (§5)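 Evaluation is visual, comparing treated with control plants on a scale where 0 means no effect and 100 means full control. Treatments were preemergence, or postemergence on seedlings 2–18 cm tall, and held 13–15 days in the greenhouse.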

rice [6] = experiment: Test B flooded paddy test; format: in vivo, Oryza sativa; conditions: 1000 g ai/ha, visual rating, scale 0 to 100 (0 no effect, 100 complete control), 13 to 15 days
How it was run: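 Each value is a visual 0–100 response rating taken against controls 13 to 15 days after treatment in the greenhouse. Plants received formulated chemical postemergence at the 1- to 4-leaf stage or, in flooded paddy, at the 2-leaf stage.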

cocklebur = experiment: Test B pre-/postemergence herbicide test; format: in vivo, Xanthium strumarium
How it was run: as §1

barnyardgrass [7] = experiment: Test B flooded paddy test; format: in vivo, Echinochloa crus-galli; conditions: 1000 g ai/ha, visual rating, scale 0 to 100 (0 no effect, 100 complete control), 13 to 15 days
How it was run: as §3

velvetleaf [8] = experiment: Test A pre-/postemergence herbicide test; format: in vivo, Abutilon theophrasti
How it was run: as §2

wheat = experiment: Test B postemergence herbicide test; format: in vivo, Triticum aestivum; set-up: key to Wheat plant response rating: 0 = no effect, 100 = complete control; conditions: scale 0 (no effect) to 100 (complete control)
How it was run: as §4

pigweed = experiment: Test B pre-/postemergence herbicide test; format: in vivo, Amaranthus retroflexus
How it was run: as §5

rice [9] = experiment: Test B pre-/postemergence herbicide test; format: in vivo, Oryza sativa; conditions: preemergence
How it was run: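 Plants compared with untreated controls 13–15 days post-treatment and given a visual 0–100 injury score. Applications: preemergence to seeds; postemergence at 1- to 4-leaf (2–18 cm); paddy species flooded, 2-leaf stage. Vehicle non-phytotoxic, surfactant included.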

ducksalad = experiment: Test B flooded paddy test; format: in vivo, Heteranthera limosa; conditions: 1000 g ai/ha, visual rating, scale 0 to 100 (0 no effect, 100 complete control), 13 to 15 days
How it was run: as §3

corn = experiment: Test B pre-/postemergence herbicide test; format: in vivo, Zea mays
How it was run: as §5

barnyardgrass [10] = experiment: Test B pre-/postemergence herbicide test; format: in vivo, Echinochloa crus-galli
How it was run: as §1

redroot pigweed = experiment: Test A pre-/postemergence herbicide test; format: in vivo, Amaranthus retroflexus
How it was run: as §2

[11] = test system: small flower umbrella sedge; experiment: Test B flooded paddy test; format: in vivo, Cyperus difformis; conditions: 1000 g ai/ha, visual rating, scale 0 to 100 (0 no effect, 100 complete control), 13 to 15 days
How it was run: as §3

Surinam grass = experiment: Test B pre-/postemergence herbicide test; format: in vivo, Urochloa decumbens
How it was run: as §5

velvetleaf [12] = experiment: Test B pre-/postemergence herbicide test; format: in vivo, Abutilon theophrasti
How it was run: as §5

barnyardgrass [13] = experiment: Test A pre-/postemergence herbicide test; format: in vivo, Echinochloa crus-galli
How it was run: as §2

lambsquarters = experiment: Test B pre-/postemergence herbicide test; format: in vivo, Chenopodium album
How it was run: as §5

large crabgrass [14] = experiment: Test B pre-/postemergence herbicide test; format: in vivo, Digitaria sanguinalis
How it was run: as §5

[15] = 500 g ai/ha, visual rating 0-100, 0 no effect, 100 complete control, preemergence
[16] = Postemergence, 500 g ai/ha, visual rating after 13 to 15 days, scale 0 (no effect) to 100 (complete control)
[17] = postemergence, 125 g ai/ha, visual rating, scale 0 (no effect) to 100 (complete control)
[18] = preemergence, 125 g ai/ha, 0 to 100 scale, 0 is no effect, 100 is complete control
[19] = Postemergence, 500 g ai/ha, 0 to 100 scale, 0 no effect, 100 complete control
[20] = Postemergence, 2000 g ai/ha, 0 to 100 scale, 0 no effect, 100 complete control
[21] = Preemergence, 500 g ai/ha, visual rating, 0 to 100 scale (0 no effect, 100 complete control)
[22] = Preemergence, 2000 g ai/ha, 0 to 100 scale, 0 no effect, 100 complete control
[23] = Postemergence, 500 g ai/ha, visual rating after 13 to 15 days
[24] = postemergence, 125 g ai/ha, visual rating

Compound: C=CCOC(=O)c1cccc(NC(=O)c2cc(C(C)(C)C)nn2CC)c1C [Compound 94]
- Plant response rating, Morningglory (morningglory [1]; [15]): 0
- Plant response rating, Morningglory (morningglory [1]; [16]): 10
- Morningglory plant response rating (morningglory [1]; [17]): 10
- Plant response rating, Morningglory (morningglory [1]; [18]): 0
- Morningglory plant response rating (morningglory [2]; [19]): 20
- Plant response rating, Morningglory (morningglory [2]; [20]): 20
- Morningglory plant response rating (morningglory [2]; [21]): 10
- Morningglory plant response rating (morningglory [2]; [22]): 10
- Plant response rating, Blackgrass (blackgrass; [23]): 10
- Blackgrass plant response rating (blackgrass; [24]): 0
- Foxtail, Giant plant response rating (giant foxtail [3]; [19]): 10
- Plant response rating, Foxtail, Giant (giant foxtail [3]; [20]): 15
- Foxtail, Giant plant response rating (giant foxtail [3]; [21]): 45
- Foxtail, Giant plant response rating (giant foxtail [3]; [22]): 65
- Plant response rating, Oat, Wild (wild oat; [23]): 10
- Oat, Wild plant response rating (wild oat; [24]): 10
- Crabgrass, Large plant response rating (large crabgrass [4]; [19]): 10
- Plant response rating, Crabgrass, Large (large crabgrass [4]; [20]): 30
- Crabgrass, Large plant response rating (large crabgrass [4]; [21]): 35
- Crabgrass, Large plant response rating (large crabgrass [4]; [22]): 60
- Plant response rating, Foxtail, Giant (giant foxtail [5]; [15]): 30
- Plant response rating, Foxtail, Giant (giant foxtail [5]; [16]): 10
- Foxtail, Giant plant response rating (giant foxtail [5]; [17]): 10
- Plant response rating, Foxtail, Giant (giant foxtail [5]; [18]): 10
- Rice plant response rating (rice [6]): 10
- Plant response rating, Cocklebur (cocklebur; [15]): 0
- Plant response rating, Cocklebur (cocklebur; [16]): 50
- Cocklebur plant response rating (cocklebur; [17]): 20
- Plant response rating, Cocklebur (cocklebur; [18]): 0
- Barnyardgrass plant response rating (barnyardgrass [7]): 20
- Velvetleaf plant response rating (velvetleaf [8]; [19]): 20
- Plant response rating, Velvetleaf (velvetleaf [8]; [20]): 25
- Velvetleaf plant response rating (velvetleaf [8]; [21]): 5
- Velvetleaf plant response rating (velvetleaf [8]; Preemergence, 2000 g ai/ha, visual rating, 0 to 100 scale (0 no effect, 100 complete control)): 25
- Plant response rating, Wheat (wheat; [23]): 10
- Wheat plant response rating (wheat; [24]): 0
- Plant response rating, Pigweed (pigweed; [15]): 20
- Plant response rating, Pigweed (pigweed; [16]): 30
- Pigweed plant response rating (pigweed; [17]): 10
- Plant response rating, Pigweed (pigweed; [18]): 0
- Plant response rating, Rice (rice [9]; 500 g ai/ha, visual rating 0-100, 0 no effect, 100 complete control): 0
- Plant response rating, Rice (rice [9]; 125 g ai/ha, 0 to 100 scale, 0 is no effect, 100 is complete control): 0
- Ducksalad plant response rating (ducksalad): 30
- Plant response rating, Corn (corn; [15]): 0
- Plant response rating, Corn (corn; [16]): 20
- Corn plant response rating (corn; [17]): 20
- Plant response rating, Corn (corn; [18]): 0
- Plant response rating, Barnyardgrass (barnyardgrass [10]; [15]): 20
- Plant response rating, Barnyardgrass (barnyardgrass [10]; [16]): 10
- Barnyardgrass plant response rating (barnyardgrass [10]; [17]): 10
- Plant response rating, Barnyardgrass (barnyardgrass [10]; [18]): 10
- Pigweed plant response rating (redroot pigweed; [19]): 25
- Plant response rating, Pigweed (redroot pigweed; [20]): 30
- Pigweed plant response rating (redroot pigweed; [21]): 35
- Pigweed plant response rating (redroot pigweed; [22]): 85
- Sedge, Umbrella plant response rating [11]: 50
- Plant response rating, Surinam Grass (Surinam grass; [15]): 0
- Plant response rating, Surinam Grass (Surinam grass; [16]): 10
- Surinam Grass plant response rating (Surinam grass; [17]): 10
- Plant response rating, Surinam Grass (Surinam grass; [18]): 0
- Plant response rating, Velvetleaf (velvetleaf [12]; [15]): 0
- Plant response rating, Velvetleaf (velvetleaf [12]; [16]): 20
- Velvetleaf plant response rating (velvetleaf [12]; [17]): 10
- Plant response rating, Velvetleaf (velvetleaf [12]; [18]): 0
- Barnyardgrass plant response rating (barnyardgrass [13]; [19]): 20
- Plant response rating, Barnyardgrass (barnyardgrass [13]; [20]): 35
- Barnyardgrass plant response rating (barnyardgrass [13]; [21]): 20
- Barnyardgrass plant response rating (barnyardgrass [13]; [22]): 65
- Plant response rating, Lambsquarters (lambsquarters; [15]): 0
- Plant response rating, Lambsquarters (lambsquarters; [16]): 80
- Lambsquarters plant response rating (lambsquarters; [17]): 50
- Plant response rating, Lambsquarters (lambsquarters; [18]): 0
- Plant response rating, Crabgrass, Large (large crabgrass [14]; [15]): 20
- Plant response rating, Crabgrass, Large (large crabgrass [14]; [16]): 10
- Crabgrass, Large plant response rating (large crabgrass [14]; [17]): 10
- Plant response rating, Crabgrass, Large (large crabgrass [14]; [18]): 10
